Experimental data from the OligoGym collection.
After the bases stand the sugars from the 5' end (letter, count) and the backbone: PS all phosphorothioate, else s phosphorothioate and o phosphodiester by linkage. Methylation of C is not given here. l = locked nucleic acid (LNA); d = 2'-deoxy (DNA)

Biological target: SNHG14
Details: ASO
[1] = Mouse Primary Neuronal Cell, 0.005 µM

Row | Sequence | target mRNA inhibition (Human Neuronal Cell, 7.5 µM) | also measured
1 | AAAATCTCAACTACCATTT (sugars l6 d7 l2 d2 l2, PS) | 41% | 
2 | AAAATCTCAACTACCATTT (sugars ldldllddddddddlllll, PS) | 31% | 
3 | AAAATCTCAACTACCATTT (sugars lldldlddddddddlllll, PS) | 41% | 
4 | AAAATCTCAACTACCATTTT (sugars ldlddlddddddddldllll, PS) | 28% | 
5 | AAAATCTCAACTACCATTTT (sugars ldlllldddddddddlddll, PS) | 50% | 
6 | AAAATTATTTATACACCATC (sugars lldddldddddddldlllll, PS) | 55% | 
7 | AAAATTATTTATACACCATC (sugars llldldldddddddllldll, PS) | 56% | 
8 | AAAGATCATTCTCAACAA (sugars ldddllddddddlldlll, PS) | 33% | 
9 | AAAGATCATTCTCAACAA (sugars lddlldddddddldllll, PS) | 66% | 
10 | AAAGATCATTCTCAACAA (sugars ldllldddddddlldlll, PS) | 65% | 
11 | AAATCTCAACTACCATTTTT (sugars ldddlddddddddldlllll, PS) | 46% | 
12 | AAATTATTTATACACCATCA (sugars l1 d12 l3 d1 l3, PS) | 40% | 
13 | AAATTATTTATACACCATCA (sugars ldlddldddddddldlldll, PS) | 60% | 
14 | AACAACTCATGCCACA (sugars l2 d10 l4, PS) |  | target mRNA inhibition (Human Neuronal Cell, 0.2 µM): 53%; target mRNA inhibition (Human Neuronal Cell, 1 µM): 59%
15 | AACCCATTTCTAACAT (sugars l4 d10 l2, PS) |  | target mRNA inhibition (Human Neuronal Cell, 0.2 µM): 35%; target mRNA inhibition (Human Neuronal Cell, 1 µM): 56%
16 | AAGATCATTCTCAACAAT (sugars l2 d1 l3 d8 l4, PS) | 44% | 
17 | AAGATCATTCTCAACAAT (sugars l4 d9 l5, PS) | 52% | 
18 | AATCTCAACTACCATT (sugars l4 d10 l2, PS) |  | target mRNA inhibition (Human Neuronal Cell, 0.2 µM): 60%; target mRNA inhibition (Human Neuronal Cell, 1 µM): 66%
19 | AATTATTTATACACCATCAT (sugars ldddldlddddddldddlll, PS) | 67% | 
20 | AATTATTTATACACCATCAT (sugars lddllldddddddldlddll, PS) | 71% | 
21 | AATTATTTATACACCATCAT (sugars ldlldddddddddddldlll, PS) | 62% | 
22 | AATTTTTTTCTTACTATCTT (sugars lddddldddddddldldlll, PS) | 50% | 
23 | AATTTTTTTCTTACTATCTT (sugars ldddldlddddddlldddll, PS) | 34% | 
24 | AATTTTTTTCTTACTATCTT (sugars llllddldddddddldddll, PS) | 49% | 
25 | ACAACTATTATCTTCT (sugars l3 d10 l3, PS) |  | target mRNA inhibition (Human Neuronal Cell, 0.2 µM): 40%; target mRNA inhibition (Human Neuronal Cell, 1 µM): 57%

Row | Sequence | target mRNA inhibition (Human Neuronal Cell, 7.5 µM) | also measured
26 | ACATCTCATACTTGCT (sugars l2 d11 l3, PS) |  | target mRNA inhibition [1]: 96.3%
27 | ACATCTCATACTTGCTT (sugars l2 d12 l3, PS) |  | target mRNA inhibition [1]: 96.9%
28 | ACATTATTATTTAACCT (sugars l3 d11 l3, PS) |  | target mRNA inhibition (Human Neuronal Cell, 0.2 µM): 6%; target mRNA inhibition (Human Neuronal Cell, 1 µM): 17%
29 | ACCACCTAAGACCTCAA (sugars l2 d11 l4, PS) |  | target mRNA inhibition (Human Neuronal Cell, 0.2 µM): 38%; target mRNA inhibition (Human Neuronal Cell, 1 µM): 60%
30 | ACCAGCTACAGGAACCTC (sugars l3 d12 l3, PS) |  | target mRNA inhibition (Human Neuronal Cell, 0.2 µM): -35%; target mRNA inhibition (Human Neuronal Cell, 1 µM): -33%; target mRNA inhibition (Human Neuronal Cell, 5 µM): -60%
31 | ACCTTAAGTAACATTT (sugars l4 d10 l2, PS) |  | target mRNA inhibition (Human Neuronal Cell, 0.2 µM): 36%; target mRNA inhibition (Human Neuronal Cell, 1 µM): 44%
32 | ACTAATGCAATAACCC (sugars l3 d10 l3, PS) |  | target mRNA inhibition (Human Neuronal Cell, 0.2 µM): 45%; target mRNA inhibition (Human Neuronal Cell, 1 µM): 28%
33 | ACTCTCACTGTAACTTT (sugars l4 d11 l2, PS) |  | target mRNA inhibition (Human Neuronal Cell, 0.2 µM): 21%; target mRNA inhibition (Human Neuronal Cell, 1 µM): 35%
34 | ACTCTGCAATACACCAA (sugars llddlddddddldldll, PS) | 33% | 
35 | ACTGTTTATACCCTTTC (sugars l4 d11 l2, PS) |  | target mRNA inhibition (Human Neuronal Cell, 0.2 µM): 43%; target mRNA inhibition (Human Neuronal Cell, 1 µM): 51%
36 | ACTGTTTATACCCTTTCC (sugars l1 d15 l2, PS) | 40% | 
37 | AGATCATTCTCAACAATT (sugars l1 d3 l2 d6 l6, PS) | 54% | 
38 | AGATCATTCTCAACAATT (sugars l2 d1 l3 d10 l2, PS) | 46% | 
39 | AGATCATTCTCAACAATT (sugars ldllllddddddldddll, PS) | 48% | 
40 | AGATCATTCTCAACAATTA (sugars ldddllddddddldlddll, PS) | 62% | 
41 | AGCAACATTATTAACCAC (sugars l2 d10 l2 d1 l3, PS) | 44% | 
42 | AGCAACATTATTAACCAC (sugars ldllldddddddllldll, PS) | 35% | 
43 | AGCAACATTATTAACCACC (sugars lddldlddddddldddlll, PS) | 52% | 
44 | AGCAACATTATTAACCACC (sugars ldldlddddddddlddlll, PS) | 53% | 
45 | AGCTTTTAACCAGAGTGG (sugars l1 d14 l3, PS) | 66% | 
46 | AGTTCTACTATACTTTC (sugars l1 d2 l2 d8 l4, PS) | 57% | 
47 | AGTTCTACTATACTTTC (sugars l2 d1 l2 d10 l2, PS) | 58% | 
48 | AGTTCTACTATACTTTC (sugars llddlddddddldllll, PS) | 18% | 
49 | AGTTCTACTATACTTTCC (sugars ldlddddddddddlddll, PS) | 61% | 
